The text below walks through data of ChEMBL document CHEMBL4145445, “Design, synthesis and biological assessment of new thiazolylhydrazine derivatives as selective and reversible hMAO-A inhibitors” (Eur J Med Chem, 2018).

Usually IC50 stands for the concentration at which inhibition is half-maximal. A low value points to greater potency.

The target in data set [1] is T1, Amine oxidase [flavin-containing] B (Homo sapiens, UniProt P27338).
T1 sequence (P27338 whole entry): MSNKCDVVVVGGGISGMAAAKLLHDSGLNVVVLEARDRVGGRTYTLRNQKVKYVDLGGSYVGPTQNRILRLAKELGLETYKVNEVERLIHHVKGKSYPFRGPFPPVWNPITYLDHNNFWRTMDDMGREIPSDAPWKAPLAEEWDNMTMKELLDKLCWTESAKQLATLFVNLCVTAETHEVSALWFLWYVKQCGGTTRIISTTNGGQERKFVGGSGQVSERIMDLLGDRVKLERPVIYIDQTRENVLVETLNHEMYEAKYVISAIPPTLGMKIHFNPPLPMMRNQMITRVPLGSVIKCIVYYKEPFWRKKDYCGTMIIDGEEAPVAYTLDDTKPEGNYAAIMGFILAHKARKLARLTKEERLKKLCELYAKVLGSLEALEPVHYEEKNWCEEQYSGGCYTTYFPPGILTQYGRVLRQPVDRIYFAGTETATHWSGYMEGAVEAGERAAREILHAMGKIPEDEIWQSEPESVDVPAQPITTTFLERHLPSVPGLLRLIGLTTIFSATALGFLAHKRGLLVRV
Nature of the data set: Inhibition of human MAO-B using tyramine hydrochloride as substrate after 30 mins by Amplex Red reagent based horseradish peroxidase enzyme-coupled fluorescence assay.

For data set [2], the target named is T2, Amine oxidase [flavin-containing] A (Homo sapiens, UniProt P21397).
T2 sequence (P21397 whole entry): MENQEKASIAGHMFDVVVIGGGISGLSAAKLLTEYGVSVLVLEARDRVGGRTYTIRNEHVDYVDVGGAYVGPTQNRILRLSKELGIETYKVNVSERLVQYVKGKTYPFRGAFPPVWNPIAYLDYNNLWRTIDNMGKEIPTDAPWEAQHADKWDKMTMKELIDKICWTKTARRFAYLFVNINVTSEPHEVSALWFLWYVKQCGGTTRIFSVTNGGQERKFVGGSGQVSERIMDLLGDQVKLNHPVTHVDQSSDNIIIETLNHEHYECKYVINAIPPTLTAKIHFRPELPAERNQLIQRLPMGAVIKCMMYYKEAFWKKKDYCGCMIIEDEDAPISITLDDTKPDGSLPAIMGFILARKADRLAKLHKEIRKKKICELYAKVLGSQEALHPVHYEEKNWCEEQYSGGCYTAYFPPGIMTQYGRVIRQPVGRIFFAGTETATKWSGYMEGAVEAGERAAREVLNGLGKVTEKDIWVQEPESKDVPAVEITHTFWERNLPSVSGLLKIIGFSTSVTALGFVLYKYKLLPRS
Nature of the data set: Inhibition of human MAO-A at 10^-4 to 10^-3 M using tyramine hydrochloride as substrate after 30 mins by Amplex Red reagent based horseradish peroxidase enzyme-coupled fluorescence assay relative to control. Particulars: 0.5 h.

The target of data set [3] is T1, Amine oxidase [flavin-containing] B. Description: Inhibition of human MAO-B at 10^-4 to 10^-3 M using tyramine hydrochloride as substrate after 30 mins by Amplex Red reagent based horseradish peroxidase enzyme-coupled fluorescence assay relative to control. Particulars: 0.5 h.
The target in data set [4] is T2, Amine oxidase [flavin-containing] A. Nature of the data set: Inhibition of human MAO-A using tyramine hydrochloride as substrate after 30 mins by Amplex Red reagent based horseradish peroxidase enzyme-coupled fluorescence assay.
The species named for another data set is Homo sapiens. Nature of the data set: Selectivity index, ratio of IC50 for human MAO-B to IC50 for human MAO-A.

Take `N#Cc1ccc(-c2csc(N/N=C/c3ccc(N4CCCC4)cc3)n2)cc1`: the half-maximal inhibitory concentration (IC50) in data set [1] is 53.1 µM; in data set [4], 66.3 µM. Besides, the “inhibition (INH)” value in data set [2] and in data set [3] was more than 50% in each case. In addition, in the data set filed under Homo sapiens, the Ratio IC50 stood at 0.8.
Consider `Clc1ccc(-c2csc(N/N=C/c3ccc(N4CCCC4)cc3)n2)cc1`, for which the IC50 in data set [1] was found to be 761 µM; in data set [4], 45.1 µM. In addition, the “inhibition (INH)” value in data set [2] and in data set [3] was more than 50% throughout. For the same compound, the Ratio IC50 in the data set filed under Homo sapiens is 16.9.
Regarding `Clc1ccc(-c2csc(N/N=C/c3ccc(N4CCCC4)cc3)n2)c(Cl)c1`, the 50% inhibitory concentration (IC50) in data set [1] is 131 µM; in data set [4] it was 103 µM. For the same compound, the “inhibition (INH)” value in data set [2] and in data set [3] was more than 50% each time. For the same compound, in the data set listed under Homo sapiens, the Ratio IC50 stood at 1.26.
Consider `Brc1ccc(-c2csc(N/N=C/c3ccc(N4CCCC4)cc3)n2)cc1`, for which the figures for the IC50 in data set [1] and in data set [4] were more than 1000 µM and 61.3 µM, respectively. Also, the “inhibition (INH)” value in data set [2] is more than 50%. Besides, in the data set filed under Homo sapiens, the Ratio IC50 is more than 16.3.
`Fc1ccc(-c2csc(N/N=C/c3ccc(N4CCCC4)cc3)n2)cc1`: the 50% inhibitory concentration (IC50) in data set [1] was found to be 426 µM; in data set [4] it was 13.1 µM. Besides, the “inhibition (INH)” value in data set [2] and in data set [3] was more than 50% throughout. Besides, the Ratio IC50 in the data set filed under Homo sapiens is 32.5.
Regarding `Brc1ccc(-c2csc(N/N=C/c3ccc(N4CCOCC4)cc3)n2)cc1`, the values for the IC50 in data set [1] and in data set [4] were more than 100 µM and 14.6 µM, respectively. In data set [2], the “inhibition (INH)” value is recorded as more than 50%. Also, the Ratio IC50 in the data set filed under Homo sapiens is more than 6.84.
Take `Clc1ccc(-c2csc(N/N=C/c3ccc(N4CCOCC4)cc3)n2)cc1`: the IC50 turned out to be 558 µM in data set [1] and 10.6 µM in data set [4]. For the same compound, the “inhibition (INH)” value in data set [2] and in data set [3] was more than 50% in each case. Besides, in the data set filed under Homo sapiens, the Ratio IC50 came to 52.8.
